This note sets out measurements from patent US11912679B2, “Aryl alkynamide derivatives” (Astellas Pharma, Inc., priority 2022, dated 2024).

One test concerns IFNβ production. As to the kind of experiment: Test on IFNβ production in mice plasma (DMXAA-induced). Format: in vivo. Particulars: male C57BL/6J mice, 1 mg/kg oral, DMXAA 20 mg/kg i.p. after 1 hour, plasma 4 hours later. The procedure:
Male C57BL/6J mice (8-12-weeks-old) were administered orally either vehicle or 1 mg/kg of test compounds. After 1 hour, 5,6-Dimethylxanthenone-4-acetic acid (DMXAA) (BLD Pharmatech Ltd, BD126695) was administered intraperitoneally at a dose of 20 mg/kg. Four hours later, the mice were euthanized, and the plasma was collected. Plasma concentration of IFNβ was measured by an enzyme-linked immunosorbent assay method using an AlphaLISA Mouse IFNβ Detection Kit (Parkin Elmer, AL586C), and the inhibition ratio to the vehicle administration group was calculated.

For the next test, the system named is IRF pathway of THP-1. Nature of the test: Test on the activity of IRF pathway of THP-1 (THP1-Dual reporter cells stimulated with 2'3'-cGAMP). Format: cell-based. The following applies: Homo sapiens, PMA-treated, 2'3'-cGAMP 5 ug/mL, QUANTI-Luc readout, read-out: IC50 of inhibition of the activity of IRF pathway. As to the method:
0.3 uM of PMA (phorbol myristate acetate, SIGMA, P1585) was added to THP1-Dual™ cells (NF-κB-SEAP IRF-Luc Reporter Monocytes, Invivogen, thpd-nfis), and the cells were cultured at 37° C. for 1 day in RPMI1640 with 10% Fetal Bovine Serum (FBS). A compound with a known concentration was added, and the cells were incubated at room temperature for 1 hour. Mammalian (non-canonical) CDN, cyclic [G(2′,5′)pA(3′,5′)p] (2′3′-cGAMP, Invivogen, tlrl-nacga23) was added to a final concentration of 5 ug/mL, and the cells were cultured at 37° C. On the following day, QUANTI-Luc™ (Secreted luciferase detection medium, Invivogen, rep-qlc) was added to the culture solution and the activity of IRF pathway was measured using a microplate reader. The inhibition ratio at each concentration was determined, where the activity of IRF pathway with no addition of the test compound or 2′3′-cGAMP was defined as 100% inhibition and the activity of IRF pathway with no addition of the test compound and with addition of 2′3′-cGAMP was defined as 0% inhibition. The IC50 value was calculated by sigmoid […] model non-linear regression analysis.

Molecules are shown by their SMILES.

What is called IC50 is the concentration that gives 50% inhibition. Take `O=C(C#Cc1ccc(-c2ccccc2)c(C(F)(F)F)c1)NC[C@H](O)CO` [Example 35, N-[(2S)-2,3-dihydroxypropyl]-3-[2-(trifluoromethyl)[1,1′-biphenyl]-4-yl]prop-2-ynamide]: the “Inh (%): inhibition ratio of the production of IFNβ to the vehicle administration group” value (“Inh (%): inhibition ratio” below) with IFNβ production is reported as 83%. Further, the IC50 with IRF pathway of THP-1 was determined as 466 nM.
For the compound `O=C(C#Cc1ccc(-c2ccccc2)c(C(F)(F)F)c1)NC[C@@H](O)CO` [Example 36, N-[(2R)-2,3-dihydroxypropyl]-3-[2-(trifluoromethyl)[1,1′-biphenyl]-4-yl]prop-2-ynamide], the “Inh (%): inhibition ratio” value with IFNβ production is reported as 85%. Besides, the IC50 with IRF pathway of THP-1 was found to be 615 nM.
In the case of `O=C(C#Cc1ccc(-c2ccccc2)c(C(F)(F)F)c1)N1C[C@@H](O)[C@H](O)C1` [Example 43, 1-[(3R,4R)-3,4-dihydroxypyrrolidin-1-yl]-3-[2-(trifluoromethyl)[1,1′-biphenyl]-4-yl]prop-2-yn-1-one], the “Inh (%): inhibition ratio” value in the test on IFNβ production stood at 87%. The IC50 in the test with IRF pathway of THP-1 amounted to 201 nM.
For `O=C(C#Cc1ccc(-c2ccccc2)c(C(F)(F)F)c1)N1C[C@H](O)[C@@H](O)C1` [Example 44, 1-[(3S,4S)-3,4-dihydroxypyrrolidin-1-yl]-3-[2-(trifluoromethyl)[1,1′-biphenyl]-4-yl]prop-2-yn-1-one], in that order: 82% and 174 nM.
For `O=C(C#Cc1ccc(-c2ccccc2)c(C(F)(F)F)c1)N1CC(CO)(CO)C1` [Example 46, 1-[3,3-bis(hydroxymethyl)azetidin-1-yl]-3-[2-(trifluoromethyl)[1,1′-biphenyl]-4-yl]prop-2-yn-1-one], in that order: 69% and 150 nM.
In the case of `CC(C)Oc1cc(C#CC(=O)N2C[C@@H](O)[C@@H](O)C2)ccc1-c1ccccc1C(F)(F)F` [Example 126], the IC50 with IRF pathway of THP-1 was found to be 372 nM.
The same measure, in the same setting: then `CN[C@@H]1CCN(C(=O)C#Cc2ccc(-c3ccccn3)c(C(F)(F)F)c2)C1` [Example 127, 1-[(3R)-3-(methylamino)pyrrolidin-1-yl]-3-[4-(pyridin-2-yl)-3-(trifluoromethyl)phenyl]prop-2-yn-1-one], with 529 nM.
Same read-out and setting: as for `C#CCOc1ccccc1-c1ccc(C#CC(=O)N2C[C@@H](O)[C@@H](O)C2)cc1C(F)(F)F` [Example 129, 1-[(3R,4S)-3,4-dihydroxypyrrolidin-1-yl]-3-{2′-[(prop-2-yn-1-yl)oxy]-2-(trifluoromethyl)[1,1′-biphenyl]-4-yl}prop-2-yn-1-one], the figure is 242 nM; as for `CS(=O)(=O)NCCCN(CCO)C(=O)C#Cc1ccc(-c2ccccc2)c(C(F)(F)F)c1` [Example 130, N-(2-hydroxyethyl)-N-{3-[(methanesulfonyl)amino]propyl}-3-[2-(trifluoromethyl)[1,1′-biphenyl]-4-yl]prop-2-ynamide], 427 nM; as for `O=C(C#Cc1ccc(-c2ccccc2C(F)(F)F)cc1)N1C[C@@H](O)[C@@H](O)C1` [Example 131, 1-[(3R,4S)-3,4-dihydroxypyrrolidin-1-yl]-3-[2′-(trifluoromethyl)[1,1′-biphenyl]-4-yl]prop-2-yn-1-one], 578 nM.
As for `N=S1(=O)CCN(C(=O)C#Cc2cnc(-c3ccc(Cl)cc3C(F)(F)F)nc2)CC1` [Example 132], the IC50 in the test on IRF pathway of THP-1 was determined as 179 nM.
The same measure, in the same setting: as for `O=C(C#Cc1ccc(-c2ccccc2C(F)(F)F)c(CO)c1)N1C[C@@H](O)[C@@H](O)C1` [Example 133, 1-[(3R,4S)-3,4-dihydroxypyrrolidin-1-yl]-3-[2-(hydroxymethyl)-2′-(trifluoromethyl)[1,1′-biphenyl]-4-yl]prop-2-yn-1-one], the figure is 731 nM.
